Each structure is given as a SMILES string.

The values below come from the Deep4Chem optical property database.

A short description of this data set: solvent given as SMILES.

As to `C(#Cc1c(C#Cc2ccccc2)c(C#Cc2ccccc2)c(C#Cc2ccccc2)c(C#Cc2ccccc2)c1C#Cc1ccccc1)c1ccccc1`, the absorption maximum (in ClCCl) came out at 371 nm.

For the compound `CC[N+]1(CC)CN2C(=N1)C(C(=O)O)=Cc1ccc(C)cc12`, the absorption maximum (in O) came out at 370 nm.

Take `FC(F)(F)c1ccc(-c2ccc(-c3cc(-c4ccccn4)nc(-c4ccccn4)c3)cc2)cc1`: under “in ClCCl”, the absorption maximum stood at 289 nm.

Take `CCOC(=O)c1ccccc1-c1c2ccc(=O)cc-2oc2cc(OC(=O)[C@H](CO[Si](C)(C)C(C)(C)C)NC(=O)OC(C)(C)C)ccc12`: the absorption maximum by setting is: (in C1CCOC1) 428 nm; (in CC#N) 445 nm; (in CCO) 433 nm; (in CS(C)=O) 449 nm.

For `COc1ccc(/C=C/C2=NC(=C\c3ccncc3)/C(=O)N2C)cc1`, the absorption maximum by setting is: (in C1COCCO1) 422 nm; (in CC#N) 428 nm; (in CCO) 433 nm; (in CCOC(C)=O) 423 nm; (in O) 425 nm.

As to `N=c1oc2cccc3c4c(-c5ccccc5)oc5cccc(c(c1-c1ccccc1)c23)c54`, the absorption maximum (in ClC(Cl)Cl) was 397 nm.

For the setting “in Cc1ccccc1”, `N#CC(C#N)=C(c1ccc(-n2ccc3ccccc32)cc1)c1ccc(-n2ccc3ccccc32)cc1` yielded an absorption maximum of 400 nm.

`COc1cn2cc(-c3ccc(C#N)cc3)[n-][n+]2c1` came in with an absorption maximum (in ClCCl) of 378 nm.

Where the note is “in CC#N”, `Brc1ccc(-c2pc3ccccc3s2)cc1` (stereo not given) had an absorption maximum of 337 nm.

Regarding `C#CCOc1ccc(/C=C/C2=[N+]3C(=C(c4ccccc4)c4c(C)cc(C)n4[B-]3(F)F)C(C)=C2)cc1`, the absorption maximum (in CO) was determined as 563 nm.

In turn, `CCCCN1C(=O)C2=C(c3ccc(Br)cc3)NC(=O)C2=C1c1ccc(Br)cc1` had an absorption maximum (in ClCCl) of 477 nm.

Consider `COc1c2ccccc2c(OC)c2c(C#C[Si](C(C)C)(C(C)C)C(C)C)c3cc4sccc4cc3c(C#C[Si](C(C)C)(C(C)C)C(C)C)c12`, for which the absorption maximum (in ClCCl) was 639 nm.

`CCCCC(CC)CN1C(=O)c2cc(Oc3ccc(OC)cc3)c3c4c(Oc5ccc(C(C)(C)C)cc5)cc5c6c(cc(Oc7ccc(C(C)(C)C)cc7)c(c7c(Oc8ccc(OC)cc8)cc(c2c37)C1=O)c64)C(=O)N(c1c(C(C)C)cccc1C(C)C)C5=O` (stereo not given) had an absorption maximum (in Cc1ccccc1) of 581 nm.

Regarding `C/C(=N\Nc1ccc(C#N)cc1)c1cccc(/C(C)=N/Nc2ccc(C#N)cc2)c1`, the absorption maximum came to 355 nm (in CC#N); 359 nm (in CCCCCC); 346 nm (in CO); 366 nm (in CS(C)=O); 353 nm (in ClC(Cl)Cl).

Where the note is “in CCCCCCC”, `c1cc2c3c(cccc3c1)-c1cc3c(ccc4ccccc43)cc1-2` returned an absorption maximum of 405 nm.

`F[B-]1(F)OC(c2cc3c4c(c2)CCCN4CCC3)=Cc2cccc[n+]21` displayed an absorption maximum (in ClC(Cl)Cl) of 450 nm.

For the compound `O=C(O)C1=C(C(=O)O)C2=C[C@H]3c4ccccc4[C@]2([Se]1)c1ccccc13`, the absorption maximum (in ClCCl) was determined as 421 nm.

`COc1ccc(C2=C(c3ccc(OC)cc3)C(C)(C)c3ccccc32)cc1` showed an absorption maximum (in C1CCCCC1) of 283 nm.

`COOCc1noc(-c2ccccc2)c1Cl` yielded an absorption maximum (in C1CCCCC1) of 277 nm.

Regarding `CC1(C)CC(/N=C/c2ccc3ccc4cccc5ccc2c3c45)CC(C)(C)N1[O]`, the absorption maximum runs as follows: (in C1CCCCC1) 360 nm; (in CC#N) 359 nm; (in CO) 359 nm; (in ClC(Cl)Cl) 362 nm.

`CN1C(=O)/C(=C/c2ccncc2)N=C1/C=C/c1ccccc1`: the absorption maximum reads like this: (in C1COCCO1) 411 nm; (in CC#N) 408 nm; (in CCO) 411 nm; (in CCOC(C)=O) 408 nm; (in O) 408 nm.

For `CC(=O)c1ccc(-c2cc3c(ccc4sccc43)s2)cc1`, the absorption maximum (in ClCCl) came out at 350 nm.

Regarding `c1ccc(-c2nn(-c3ccccc3)c3nc4ccc(-n5c6ccccc6c6ccccc65)cc4cc23)cc1`, the absorption maximum runs as follows: (in C1CCCCC1) 419.11 nm; (in C1CCOC1) 414.94 nm; (in CC#N) 411.02 nm; (in CC(C)=O) 412.03 nm; (in CCCCCl) 415.97 nm; (in CCCCOCCCC) 418.06 nm. The compound also returned an absorption maximum (in CN(C)C=O) of 414.94 nm.

Regarding `C(#Cc1ccc(C#Cc2ccccc2)cc1)c1ccccc1`, for the setting “in ClC(Cl)Cl”, the absorption maximum is listed as 328 nm.

As to `Oc1c(-c2cccs2)cccc1-c1nc2ccccc2s1`, the absorption maximum came to 356 nm (in ClCCl) and 346 nm (in O).

`FC(F)(F)c1ccc(/C=C/c2nc(/C=C/c3ccc(N(c4ccccc4)c4ccccc4)cc3)cc(/C=C/c3ccc(N(c4ccccc4)c4ccccc4)cc3)n2)cc1` came in with an absorption maximum (in ClCCl) of 430 nm.

On to `CCOC(=O)c1sc(SC)c2c(=O)[nH]nnc12`, for which the absorption maximum runs as follows: (in C1CCOC1) 380.5 nm; (in CC#N) 381 nm; (in CCO) 385 nm; (in CN(C)C=O) 389 nm; (in CO) 384.5 nm; (in CS(C)=O) 387.5 nm.

For the compound `COc1c2ccccc2c(-c2ccccc2)c2ccccc12`, the absorption maximum is given as 378 nm (in C1COCCO1); 378 nm (in CCCCCC); 376 nm (in CCCCCCC); 378 nm (in CCCCO); 378 nm (in CCO); 378 nm (in CN(C)C=O). In addition, the absorption maximum (in Cc1ccccc1) came to 378 nm; the absorption maximum (in ClC(Cl)(Cl)Cl) came out at 376 nm; the absorption maximum (in ClC(Cl)Cl) amounted to 378 nm; the absorption maximum (in ClCCl) turned out to be 378 nm; the absorption maximum (in OCC(O)CO) was 378 nm; the absorption maximum (in OCCO) stood at 379 nm.

In the case of `Cn1c2ccc(S(=O)(=O)Cl)cc2c(=O)c2cc(S(=O)(=O)Cl)ccc21`, the absorption maximum (in CS(C)=O) is 406 nm.

Take `CC[N+](CC)=c1ccc2c(-c3ccccc3C(=O)O)c3c(=O)oc4c5c6c(cc4c3oc-2c1)CCCN6CCC5`: the absorption maximum amounted to 612 nm (in CCO), 623 nm (in ClC(Cl)Cl) and 612 nm (in O).

Regarding `CCCCN1C(=S)c2cccc3c(N(C)C)ccc(c23)C1=S`, the absorption maximum turned out to be 571 nm (in CC#N), 588 nm (in CS(C)=O) and 536 nm (in Cc1ccccc1).

Where the note is “in c1ccccc1”, `O=c1oc2ccccc2nc1-c1ccc(Cl)cc1` had an absorption maximum of 344 nm.

Under “in ClC(Cl)Cl”, `CC(C)(C)c1ccc2oc3nc4oc5ccc(N6c7ccccc7Sc7ccccc76)cc5c4cc3c2c1` had an absorption maximum of 348 nm.

On to `O=C(O)c1ccccc1-c1nc(-c2ccccc2)c2ccccn12`, for which, under “in CC#N”, the absorption maximum came out at 357 nm.

Take `Clc1ccc(-c2nc(-c3ccccc3)sc2N(c2ccccc2)c2ccccc2)cc1`: the absorption maximum (in ClC(Cl)Cl) came out at 366 nm.

Regarding `Cc1s[c+](N2CCOCC2)sc1-c1cc(I)cc(I)c1[O-]`, the absorption maximum reads like this: (in C1CCOC1) 425 nm; (in CC#N) 409 nm; (in CO) 371 nm; (in ClCCl) 413 nm.

For the compound `COc1cc(Br)cc2cc(-c3cc4cc(Br)cc(OC)c4oc3=O)oc12`, the absorption maximum by setting is: (in CC#N) 353 nm; (in CCOC(C)=O) 355 nm; (in CS(C)=O) 359 nm; (in Cc1ccccc1) 360 nm; (in O) 359 nm.

For the compound `CN(C)c1ccc2nc(-c3ccccc3)c(=O)oc2c1`, the absorption maximum (in c1ccccc1) turned out to be 436 nm.
